Laboratory results reported in the supplement of paper PMC13380429.

Assays:
Conditions in all cases: 72 h
Calu-3 [1] = experiment: cell viability relative to DMSO; higher = less toxic
U2OS [2] = experiment: as above
Vero E6 [3] = experiment: as above
HepG2 [4] = experiment: as above
Caco-2 [5] = experiment: as above
Calu-3 [6] = experiment: relative viability EC50 (midpoint between 100% and the lowest measured viability); higher = less toxic
U2OS [7] = experiment: as above
Vero E6 [8] = experiment: as above
HepG2 [9] = experiment: as above
Caco-2 [10] = experiment: as above
Calu-3 [11] = experiment: drug sensitivity score (DSS) for viability; higher = more toxic; extreme values may be limits of the assay
U2OS [12] = experiment: as above
Vero E6 [13] = experiment: as above
HepG2 [14] = experiment: as above
Caco-2 [15] = experiment: as above

SMILES	cell viability (Calu-3 [1]; 1 nM)	cell viability (Calu-3 [1]; 10 nM)	cell viability (Calu-3 [1]; 100 nM)	cell viability (Calu-3 [1]; 1000 nM)	cell viability (Calu-3 [1]; 10000 nM)	cell viability (U2OS [2]; 1 nM)	cell viability (U2OS [2]; 10 nM)	cell viability (U2OS [2]; 100 nM)	cell viability (U2OS [2]; 1000 nM)	cell viability (U2OS [2]; 10000 nM)	cell viability (Vero E6 [3]; 1 nM)	cell viability (Vero E6 [3]; 10 nM)	cell viability (Vero E6 [3]; 100 nM)	cell viability (Vero E6 [3]; 1000 nM)	cell viability (Vero E6 [3]; 10000 nM)	cell viability (HepG2 [4]; 1 nM)	cell viability (HepG2 [4]; 10 nM)	cell viability (HepG2 [4]; 100 nM)	cell viability (HepG2 [4]; 1000 nM)	cell viability (HepG2 [4]; 10000 nM)	cell viability (Caco-2 [5]; 1 nM)	cell viability (Caco-2 [5]; 10 nM)	cell viability (Caco-2 [5]; 100 nM)	cell viability (Caco-2 [5]; 1000 nM)	cell viability (Caco-2 [5]; 10000 nM)	relative viability EC50 (Calu-3 [6])	relative viability EC50 (U2OS [7])	relative viability EC50 (Vero E6 [8])	relative viability EC50 (HepG2 [9])	relative viability EC50 (Caco-2 [10])	drug sensitivity score (Calu-3 [11])	drug sensitivity score (U2OS [12])	drug sensitivity score (Vero E6 [13])	drug sensitivity score (HepG2 [14])	drug sensitivity score (Caco-2 [15])
COCCN1CCC(C(=O)NO)(S(=O)(=O)c2ccc(Oc3ccc(OC(F)(F)F)cc3)cc2)CC1 [SD-2590]	93.9%	96.8%	96.9%	98.8%	88.1%	98.2%	103%	92.2%	100%	98.8%	97.6%	94%	98.7%	92.2%	103%	95.9%	93.8%	93.9%	89%	91.6%	97.8%	103%	95.9%	98.8%	107%	> 10 µM	> 10 µM	> 10 µM	> 10 µM	> 10 µM	0.1	0	0	0	0
Cc1cc(C(=CNc2ccc(Cl)cc2)C(=O)Nc2ccc(Cl)cc2)on1 [CCMI]	104%	100%	105%	98.9%	105%	103%	93.3%	97.8%	102%	99.4%	98.7%	101%	98.7%	96.6%	98.1%	95.6%	96.3%	96.9%	107%	95.7%	98.4%	93%	104%	88%	100%	> 10 µM	> 10 µM	> 10 µM	> 10 µM	> 10 µM	0	0	0	0	0
Oc1c(Cl)cc(Cl)c2cccnc12 [chloroxine]	93.9%	103%	91.9%	100%	84.2%	102%	103%	96.7%	101%	94.4%	100%	105%	96.9%	93.5%	96.7%	75.3%	89.9%	92.2%	91.6%	76%	98.9%	102%	96.6%	91.4%	85.3%	> 10 µM	> 10 µM	> 10 µM	> 10 µM	> 10 µM	0.3	0	0	0	0.5
